# Source: patent publication US20190053489A1, “ANTIMICROBIAL COMPOSITION” (NATIONAL UNIVERSITY CORPORATION TOKYO MEDICAL AND DENTAL …, priority 2016, published 2019)
# Columns and labels:
# [1] = test system: Pseudomonas aeruginosa PAO 1; experiment: Proliferation suppression against pseudomonas aeruginosa PAO 1 in a standard medium (colony count method); format: cell-based; conditions: standard TSB medium; colony count 6 hours later; complex 0.2%, others 0.1%; FIG. 10
# From the text: (§1) This test employed Pseudomonas aeruginosa NBRC 13275 or PAO 1, and other procedures were the same as those of [Example 5] described earlier.
# (§2) Note that the results of FIG. 9 are each the average value of the values obtained by carrying out the colony count method three times and that the results of FIG. 10 are each the average value of the values obtained by carrying out the colony count method five times.
# MRSA IID 1677 = experiment: Proliferation suppression against MRSA in a standard medium (colony count method); format: cell-based, Methicillin-Resistant Staphylococcus Aureus (MRSA)
# Experimental: This test employed MRSA IID 1677, and this microbe strain was inoculated in 20 ml of a normal broth medium (manufactured by Eiken Chemical Co., Ltd., ‘Eiken’) for overnight shake culture at 37° C. The cultured microbial solution was collected by centrifugation (3000 rpm, 10 minutes), suspended with sterilized water, and then diluted with sterilized water so that the optical density would satisfy OD600=1.0. The resultant was diluted 2000 times (corresponding to 10^6 CFU/ml) to prepare a reaction microbial solution.
# Here, the TSB test medium samples were prepared using 10 ml of TSB medium (BD BBL™) added with 200 μl of 1 M phosphate buffer (pH 7.0), followed by further addition of
# (1) 10 ml of sterilized water, ([…]), (3) 10 ml of lysozyme alone with a concentration of 0.2% (the concentration after addition was 0.1%), (4) 10 ml of chitosan alone with a concentration of 0.2% (the concentration after addition was 0.1%), and (5) 10 ml of the mixture of lysozyme and chitosan with a concentration of 0.2% (the concentration of each after addition was 0.1%).
# After that, 100 μl was extracted and seeded on the MH agar medium, and the number of colonies produced was observed (colony count method). […] Note that the results of FIG. 7 are each the average value of the values obtained by carrying out the colony count method three times.
# Note that the results of FIG. 8 are each the average value obtained with two replicate samples.
# [2] = test system: Pseudomonas aeruginosa NBRC 13275; experiment: Proliferation suppression against pseudomonas aeruginosa NBRC 13275 in a standard medium (colony count method); format: cell-based; conditions: standard TSB medium; for ratio of the number of pseudomonas aeruginosa (NBRC 13275) colonies produced to the control: 6 hours later, FIG. 11
# From the text: as §1, §2
# Note that the results of FIG. 11 are each the average value obtained with three replicate samples.
# [3] = test system: Pseudomonas aeruginosa NBRC 13275; experiment: Proliferation suppression against pseudomonas aeruginosa in a diluted medium (OD600); format: cell-based; conditions: diluted 1/2.5 TSB medium with phosphate buffer pH 7.0; complex 0.01%; FIG. 2
# Experimental: This test employed Pseudomonas aeruginosa NBRC 13275, and this microbe strain was cultured in a normal broth medium at 37° C. for 20 hours. The cultured microbial solution was collected by centrifugation (3000 rpm, 10 minutes), suspended with sterilized water, and then diluted with sterilized water so that the optical density would satisfy OD600=1.0. The resultant was diluted 2000 times (corresponding to 10^6 CFU/ml) to prepare a reaction microbial solution.
# Each of the TSB test medium samples was added with 100 μl of reaction microbial solution and was shake cultured under the condition of 37° C. for 48 hours. Here, the TSB test medium samples were prepared using 10 ml of 1/2.5 TSB medium added with 200 μl of 1 M phosphate buffer (pH 7.0), followed by further addition of […]
# After that, 3 ml was extracted at time intervals (0, 1, and 2 days), and the optical density was measured at an absorption wavelength of 600 nm. […]
# [4] = test system: Micrococcus luteus bacteria; experiment: Heat resistance evaluation by bacteriolytic test; format: physicochemical; conditions: 80° C. for 2 hours; ΔOD at 10 minutes with vs without heating; complex 5%, lysozyme 2.5% aqueous solution; FIG. 6(D)
# Experimental: This test is a bacteriolytic test using Micrococcus luteus bacteria being lysozyme-sensitive bacteria. Note that the bacteriolytic activity is an activity specific to lysozyme. Lysozyme is a protein relatively stable against heat. However, it is known that this activity generally decreases considerably for lysozyme heated at 80° C. for 30 minutes.
# This test employed an aqueous solution of the lysozyme-chitosan complex with a concentration of 5%, an aqueous solution of lysozyme with a concentration of 2.5%, and an aqueous solution of the mixture of lysozyme and chitosan with a concentration of […]. In addition, Micrococcus luteus bacteria manufactured by Wako Pure Chemical Industries, Ltd. were used as the use bacteria.
# First, 1 g of Micrococcus luteus bacteria was weighed on the day before the test, added to 100 ml of physiological saline, and stirred overnight at 4° C. […]
# In an optical density meter, 2800 μl of the test microbial solution was set to record OD (0-1) immediately before the addition of the sample. […] Since OD increased here, the highest value OD (0-2) was recorded.
# Timer measurement was started after the addition of the sample to record OD at the time of 2, 4, 6, 8, and 10 minutes passed. Each test was carried out twice, and the average was calculated.
# With OD for (0-2) being OD at the time of the start, Δoptical density (AOD) at each point was calculated. […]
substance,measurement,setting,value
lysozyme-chitosan complex: complex of lysozyme and water-soluble chitosan (molecular weight 14000 Da) bound to each other through the Maillard reaction,proliferation suppression effect against PAO 1,[1],"marked improvement effect compared to lysozyme alone, chitosan alone, and the mixture of lysozyme and chitosan"
same,proliferation suppression effect against MRSA (ratio of colonies produced 6 hours later to control),"MRSA IID 1677; standard TSB medium with phosphate buffer pH 7.0, complex 0.2%, lysozyme, chitosan, each of mixture 0.1%, FIG. 7",marked improvement effect compared to chitosan alone and the mixture of lysozyme and chitosan
same,proliferation suppression effect against MRSA 9 hours later,"MRSA IID 1677; standard TSB medium, any of the complex concentrations 0.01%, 0.05%, 0.1%, 0.2%, FIG. 8",sufficient proliferation suppression effect
same,ratio of the number of MRSA colonies produced to the control,"MRSA IID 1677; standard TSB medium, complex 0.2%, past 6 hours, FIG. 8",~0%
same,proliferation suppression effect against NBRC 13275,"[2]; colony count 6 hours later, complex 0.2%, others 0.1%, FIG. 9","marked improvement effect compared to lysozyme alone, chitosan alone, and the mixture of lysozyme and chitosan"
same,ratio of the number of pseudomonas aeruginosa (NBRC 13275) colonies produced to the control,[2]; complex 0.2%,~0%
same,ratio of the number of pseudomonas aeruginosa (NBRC 13275) colonies produced to the control,[2]; complex 0.5%,~0%
same,proliferation suppression effect against pseudomonas aeruginosa past 24 hours,[3],strong proliferation suppression effect
same,residual activity (bacteriolytic) after heating treatment,[4],91.9%
